Literature values as cited in patent publication US20050070607A1, “N-acetylcysteine compositions and methods for the treatment and prevention of cysteine/glutathione deficiency in diseases and conditions” (priority 2003, published 2005).
Where two headings read alike, the source gives them in different places.

Assays:
[1] = tested on: subjects with acetaminophen-induced fulminant hepatic failure; settings: late presentation; survival, cerebral edema, hypotension; IV 150 mg/kg for 15 min; 50 mg/kg for 4 h; 100 mg/kg over 16 h; n 50; 21 days; Keays 1991[2]
[2] = tested on: Malnourished children; settings: GSH synthesis rate and concentration; 0.5 mmol per kg per day; placebo alanine; n 32; 50 days; Badaloo 2002[54]
[3] = tested on: Contrast-induced nephropathy (CIN)
[4] = tested on: hemodialysis patients
[5] = tested on: patients with polycystic ovary syndrome; settings: circulating insulin levels and insulin sensitivity; 1.8-3 g daily depending on weight; n 33; 6 weeks; Fulghesu 2002[20]
[6] = tested on: Cystic Fibrosis (CF)
[7] = tested on: normal subjects breathing against high inspiratory loads; settings: development of diaphragm fatigue; 150 mg/kg IV; n 4; 3 weeks; Travaline 1997[37]
[8] = tested on: septic shock patients
[9] = tested on: Chronic blepharitis; settings: tear film quality (FBUT, mucous fern pattern); 300 mg/day po; n 40; 4 months; Yalcin 2002[57]
[10] = tested on: plaque formation; settings: 2 weeks, Bowles 1985[61]
[11] = tested on: HIV infected individuals

**Q.** Which results are given for `CC(=O)N[C@@H](CS)C(=O)O` [NAC, N-acetylcysteine]?
**A.** Treatment effect [1]: Beneficial; Treatment effect [2]: Beneficial; RR (incidence of contrast-induced nephropathy) ([3]; 400 mg PO bid for 2 days, n 121, Shyu 2002[8]): contrast-induced nephropathy (RR 0.13); RR (incidence of post-catheterization nephropathy) ([3]; 600 mg PO bid, n 54, Diaz-Sandoval 2002[7]): 0.21) in patients with stable chronic renal; relative risk, RR (reduction in renal function induced by iopromide) ([3]; 600 mg PO bid, n 83, Tepel[3-5]): contrast agent (relative risk, RR 0.10); reduction in the incidence of acute renal failure ([3]; 83 patients with baseline renal impairment, computed tomography with nonionic low-osmolality contrast agent, Tepel[3-5]): 90%; Beneficial effects ([3]; chronic renal insufficiency, iopromide, 600 mg PO bid with hydration, n 83, 2 days, Tepel 2000, 2001, 2003[3-5]): Beneficial; incidence of CIN by 48 hours ([3]; control 6.4%, 1500 mg for 4 doses, Oldemeyer 2003[188]): both groups was low (NAC 8.2%, control; incidence of CIN at 48 hours ([3]; control 12%, 600 mg 4 times daily, Boccalandro 2003[187]): hours (NAC, 13%; control 12%) after; RR (contrast-induced deterioration in renal function) ([3]; coronary angiographic procedures, 600 mg PO bid, n 200, Kay 2003[6]): adverse effects (RR 0.32). Kay, 2003[6]; Beneficial effects ([3]; moderate chronic renal insufficiency, coronary angiographic procedures, 600 mg PO bid, n 200, 3 days, Kay 2003[6]): Beneficial; Beneficial effects ([3]; oxidative stress-mediated proximal tubular injury, 1200 mg daily, n 24, 4 days, Drager 2004[271]): Beneficial; Beneficial effects ([3]; serum creatinine > 1.2 mg/dL, elective coronary angiography, creatinine clearance at 24 and 96 hours, 1000 mg daily, n 49, 4 days, Efarti 2003[9]): Beneficial; Beneficial effects ([3]; serum creatinine >= 1.5 mg/dL, elective cardiac catheterization, 600 mg 5 doses, n 43, 3 days, MacNeil 2003[10]): Beneficial; Beneficial effects ([3]; stable chronic renal insufficiency, coronary angiography, 400 mg PO bid for 2 days, n 121, 7 days, Shyu 2002[8]): Beneficial; Beneficial effects ([3]; stable chronic renal insufficiency, elective cardiac catheterization, 600 mg PO bid, n 54, 2 days, Diaz-Sandoval 2002[7]): Beneficial; incidence of contrast nephropathy ([3]; subset receiving <140 mL contrast agent, from 8.5%, p=0.02, 183 patients [190]): 0%; development of CIN by 72 hours ([3]; vs 32.2% placebo, P = 0.046, 600 mg 5 doses, MacNeil 2003[10]): catheterization (4.8% vs 32.2%, P =; RR, composite cardiovascular outcome ([4]; 134 chronic hemodialysis patients, p=0.03, [17]): 0.60; Beneficial effects ([4]; Homocysteine in hemodialysis, intravenous 5 g in 5% glucose solution, n 20, 1 session, Scholze 2004[273]): Beneficial; serum oxidized LDL values at the end of the study ([4]; chronic hemodialysis patients [17]): much lower; Plasma homocysteine level change ([4]; chronic oral 1200 mg BID, 4 weeks, placebo −8%, P = 0.07, Friedman 2003[276]): chronic oral NAC therapy (−19%) but did; Beneficial effects ([4]; composite cardiovascular end points, 600 mg bid, n 134, 1-24 months, median 14.5 months, Tepel 2003[17]): Beneficial; Plasma homocysteine level after hemodialysis ([4]; control group 58 +/− 22%, P < 0.01, intravenous 5 g, Scholze 2004[273]): homocysteine levels decreased to 12 +/− 7% of predialysis level (mean +; Beneficial effects ([4]; end-stage renal failure, plasma homocysteine, pulse pressure, endothelial function, 5 g in 5% glucose, n 20, Scholze 2004[273]): Beneficial; Beneficial effects [5]: Beneficial; Beneficial effects ([6]; CF and primary ciliary dyskinesia, lung function, 600 mg < 30 kg or 800 mg > 30 kg per day po, n 54, 3 months, Stafanger 1988[40]): Beneficial; Beneficial effects ([6]; air trapping and FEV1, NAC or Ambroxol 200 mg 3 times daily, n 36, 12 weeks, Ratjen 1985[274]): Beneficial; Beneficial effects [7]: Beneficial; Beneficial effects ([8]; Cardiac performance, MAP, cardiac index, left ventricular stroke work index, early administration 150 mg/kg over 15 min, 50 mg/kg over next 4 hrs, 100 mg/kg over next 24 hrs, n 20, 48 hours, Peake 1996[281]): Adverse; Beneficial effects ([8]; hepatosplanchnic flow and function, 150 mg/kg over 15 min before 12.5 mg/kg/hr for 90 min, n 60, 2 hours, Rank 2000[44]): Beneficial; Beneficial effects ([8]; respiratory function, ICU stay, IL-8, 150 mg/kg bolus then 50 mg/kg over 4 hr IV, n 22, 24 hours, Spapen 1998[43]): Beneficial; Beneficial effects ([8]; tissue oxygenation, survival of responders, 150 mg/kg for 15 min, then 12.5 mg/hr over 90 min IV, n 58, 2 hrs, Spies 1994[42]): Beneficial; Beneficial effects [9]: Beneficial; reduction on plaque attributable to NAC ([10]; p < .001, 10% aqueous solution): 25.56% reduction on plaque attributable to; Beneficial effects ([10]; plaque indices, 10% aqueous solution of NAC buffered to pH 6.5, n 28): Beneficial; Beneficial effects ([11]; CD4 counts > 200/ul, plasma cysteine, rate of CD4 decline, 800 mg/day po, n 45, 4 months, Akerlund 1996[47]): Beneficial; Beneficial effects ([11]; beginning of antiretroviral therapy, hematocrit, CD4 cell count, 600 mg/day, n 20, 180 days, Spada 2002[227]): Beneficial; Beneficial effects ([11]; immune function, 0.6-3.6 g depending on GSH levels po, n 69, 7 months, Breitkreutz 2000[50]): Beneficial; adverse events, highest reported long-term NAC dosage ([11]; in vivo): No adverse events requiring physician intervention; Beneficial effects ([11]; whole blood GSH and T cell GSH, 3,200-8,000 mg/day po, n 81, 8 weeks, De Rosa 2000, Herzenberg 1997[48,49]): Beneficial
